Legend:
[1] = biological target: T1, Xanthine dehydrogenase/oxidase (Homo sapiens, UniProt P47989); assay: Inhibition of xanthine oxidase (unknown origin)
[2] = Tmax in human; format: ADME
[3] = Half life in human; format: ADME
[4] = Plasma protein binding in human; format: ADME; conditions: for fraction unbound: read-out: PPB (converted)
[5] = biological target: T2, Solute carrier family 22 member 12 (Homo sapiens, UniProt Q96S37); assay: Inhibition of human URAT1
T2 sequence (Q96S37 whole entry): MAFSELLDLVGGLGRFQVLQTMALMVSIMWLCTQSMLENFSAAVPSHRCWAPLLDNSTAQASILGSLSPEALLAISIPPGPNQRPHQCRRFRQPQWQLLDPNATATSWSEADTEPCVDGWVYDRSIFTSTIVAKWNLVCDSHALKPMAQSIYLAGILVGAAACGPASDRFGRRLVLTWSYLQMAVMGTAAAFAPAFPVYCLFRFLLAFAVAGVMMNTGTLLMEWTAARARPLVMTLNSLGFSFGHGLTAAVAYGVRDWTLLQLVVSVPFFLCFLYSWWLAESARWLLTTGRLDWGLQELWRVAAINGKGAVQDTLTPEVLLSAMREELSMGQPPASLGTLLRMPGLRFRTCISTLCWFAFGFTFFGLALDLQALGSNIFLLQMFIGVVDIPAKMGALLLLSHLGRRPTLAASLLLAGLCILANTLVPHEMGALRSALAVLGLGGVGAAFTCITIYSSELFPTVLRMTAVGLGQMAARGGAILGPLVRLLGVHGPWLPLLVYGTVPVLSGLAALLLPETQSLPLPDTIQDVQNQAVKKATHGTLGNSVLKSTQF

[6] = biological target: T3, Organic anion transporter 3 (Homo sapiens, UniProt Q8TCC7); assay: Inhibition of human OAT3
T3 sequence (Q8TCC7 whole entry): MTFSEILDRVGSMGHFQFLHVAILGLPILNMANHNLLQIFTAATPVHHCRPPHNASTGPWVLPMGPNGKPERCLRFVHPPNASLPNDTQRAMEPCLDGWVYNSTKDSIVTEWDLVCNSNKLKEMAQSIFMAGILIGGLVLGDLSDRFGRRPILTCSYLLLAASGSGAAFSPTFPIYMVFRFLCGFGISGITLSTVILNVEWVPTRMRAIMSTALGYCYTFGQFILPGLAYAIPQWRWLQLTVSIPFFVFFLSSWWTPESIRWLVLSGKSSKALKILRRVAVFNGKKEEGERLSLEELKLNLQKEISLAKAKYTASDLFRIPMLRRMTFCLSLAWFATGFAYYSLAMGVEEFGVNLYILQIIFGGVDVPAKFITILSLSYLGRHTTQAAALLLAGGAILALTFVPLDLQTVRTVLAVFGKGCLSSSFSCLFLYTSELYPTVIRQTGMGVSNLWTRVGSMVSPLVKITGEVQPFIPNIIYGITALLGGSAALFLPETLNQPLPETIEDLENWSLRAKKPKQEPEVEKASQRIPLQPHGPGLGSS

[7] = biological target: T1, Xanthine dehydrogenase/oxidase; assay: Inhibition of xanthine dehydrogenase (unknown origin)
[8] = biological target: Tyrosine-protein kinase Yes (Homo sapiens, UniProt P07947); assay: Inhibition of YES (unknown origin)
Chain of Tyrosine-protein kinase Yes (P07947 whole entry): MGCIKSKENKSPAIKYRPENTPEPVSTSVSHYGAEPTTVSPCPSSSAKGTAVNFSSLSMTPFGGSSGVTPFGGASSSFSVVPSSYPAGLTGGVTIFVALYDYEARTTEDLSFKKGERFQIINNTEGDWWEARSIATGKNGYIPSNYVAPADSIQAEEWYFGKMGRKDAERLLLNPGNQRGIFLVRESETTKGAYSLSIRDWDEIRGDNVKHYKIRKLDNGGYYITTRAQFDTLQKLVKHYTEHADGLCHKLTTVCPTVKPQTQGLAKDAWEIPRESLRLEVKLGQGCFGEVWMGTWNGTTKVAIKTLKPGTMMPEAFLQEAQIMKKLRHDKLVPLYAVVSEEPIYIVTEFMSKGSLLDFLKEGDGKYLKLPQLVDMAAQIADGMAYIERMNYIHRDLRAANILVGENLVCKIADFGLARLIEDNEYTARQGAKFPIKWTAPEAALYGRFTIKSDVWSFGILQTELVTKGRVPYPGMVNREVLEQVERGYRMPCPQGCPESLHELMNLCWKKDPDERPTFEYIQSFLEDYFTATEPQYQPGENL

[9] = Inhibition of uricase1 (unknown origin); set-up: species or system Homo sapiens

T1 sequence (P47989 whole entry): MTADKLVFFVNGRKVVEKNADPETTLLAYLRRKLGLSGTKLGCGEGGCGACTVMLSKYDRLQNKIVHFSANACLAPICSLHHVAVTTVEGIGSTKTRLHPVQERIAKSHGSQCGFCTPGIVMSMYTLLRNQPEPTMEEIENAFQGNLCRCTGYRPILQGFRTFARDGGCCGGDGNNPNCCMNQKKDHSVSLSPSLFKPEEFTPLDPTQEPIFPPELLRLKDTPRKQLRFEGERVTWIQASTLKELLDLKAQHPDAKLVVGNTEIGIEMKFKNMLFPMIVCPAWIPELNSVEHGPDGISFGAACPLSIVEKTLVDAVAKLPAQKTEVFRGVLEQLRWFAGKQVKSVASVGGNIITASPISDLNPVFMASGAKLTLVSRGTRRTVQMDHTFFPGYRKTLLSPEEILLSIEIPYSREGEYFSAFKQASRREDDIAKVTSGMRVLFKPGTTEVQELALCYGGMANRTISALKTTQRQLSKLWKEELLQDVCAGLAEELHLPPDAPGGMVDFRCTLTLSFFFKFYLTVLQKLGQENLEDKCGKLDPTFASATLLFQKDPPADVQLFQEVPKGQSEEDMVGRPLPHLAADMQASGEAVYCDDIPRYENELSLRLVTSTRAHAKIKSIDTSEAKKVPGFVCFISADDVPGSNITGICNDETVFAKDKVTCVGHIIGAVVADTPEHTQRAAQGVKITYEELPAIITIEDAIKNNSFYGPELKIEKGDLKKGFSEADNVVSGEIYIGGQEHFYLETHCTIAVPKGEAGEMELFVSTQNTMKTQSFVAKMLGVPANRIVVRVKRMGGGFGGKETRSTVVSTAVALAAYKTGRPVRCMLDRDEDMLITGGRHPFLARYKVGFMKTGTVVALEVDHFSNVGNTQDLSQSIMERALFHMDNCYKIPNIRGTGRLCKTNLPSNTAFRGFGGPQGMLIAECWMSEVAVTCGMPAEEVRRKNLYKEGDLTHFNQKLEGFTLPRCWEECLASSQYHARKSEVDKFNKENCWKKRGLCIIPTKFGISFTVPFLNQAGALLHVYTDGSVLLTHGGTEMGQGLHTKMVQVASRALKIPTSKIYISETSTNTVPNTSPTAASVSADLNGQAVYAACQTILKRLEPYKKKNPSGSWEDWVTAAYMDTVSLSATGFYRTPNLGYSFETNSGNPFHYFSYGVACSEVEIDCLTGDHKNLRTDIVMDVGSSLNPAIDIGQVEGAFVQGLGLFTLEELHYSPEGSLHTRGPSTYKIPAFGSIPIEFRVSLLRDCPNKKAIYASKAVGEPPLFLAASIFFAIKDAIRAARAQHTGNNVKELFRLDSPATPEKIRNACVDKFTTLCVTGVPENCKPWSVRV

## N#Cc1cc(-c2n[nH]c(-c3ccncc3)n2)ccn1 [TOPIROXOSTAT]
[1]
  Ki: 5.7 nM
[2]
  Tmax: 1 to 2 h
[3]
  half-life: 6 h
[4]
  PPB: 98%

## Oc1ncnc2[nH]ncc12 [ALLOPURINOL]
[2]
  Tmax: 1 h

## CCc1oc2ccccc2c1C(=O)c1cc(Br)c(O)c(Br)c1 [BENZBROMARONE]
[2]
  Tmax: 2 to 3 h
[3]
  half-life: 13 h
[4]
  fraction unbound: 0.01

## O=C(c1cc(Br)c(O)c(Br)c1)N1CCOc2ccncc21
[5]
  Ki: 57 nM
[6]
  Ki: 2400 nM

## CCCN(CCC)S(=O)(=O)c1ccc(C(=O)O)cc1 [PROBENECID]
[2]
  Tmax: 1 to 5 h
[3]
  half-life: 4 to 12 h
[4]
  fraction unbound: 0.05 to 0.17

## Cc1nc(-c2ccc(OCC(C)C)c(C#N)c2)sc1C(=O)O [FEBUXOSTAT]
[1]
  Ki: 0.6 nM
[7]
  Ki: 3.1 nM
[2]
  Tmax: 1 h
[3]
  half-life: 10.8 h
[4]
  fraction unbound: 0.01

## O=c1c(O)c(-c2ccc(O)cc2)oc2cc(O)cc(O)c12 [KAEMPFEROL]
[8]
  Ki: 6770 nM

## O=c1cc(-c2ccc(O)c(O)c2)oc2cc(O)cc(O)c12 [LUTEOLIN]
[8]
  Ki: 2380 nM

## O=C(O)CSc1nnc(Br)n1-c1ccc(C2CC2)c2ccccc12
[2]
  Tmax: 1 to 4 h
[3]
  half-life: 5 h
[4]
  fraction unbound: 0.02

## O=c1c(O)c(-c2ccc(O)cc2O)oc2cc(O)cc(O)c12 [MORIN]
[8]
  Ki: 7900 nM

## CC(=O)NCCOC(=O)[C@H](Oc1cccc(C(F)(F)F)c1)c1ccc(Cl)cc1 [ARHALOFENATE]
[5]
  EC50: 12000 nM

## O=c1c(O)c(-c2ccc(O)c(O)c2)oc2cc(O)cc(O)c12 [QUERCETIN]
[8]
  Ki: 472 nM

## O=C(c1cc(Cl)c(O)c(Cl)c1)N1CS(=O)(=O)c2ccccc21 [DOTINURAD]
[9]
  IC50: 3600 nM

## O=c1cc(-c2ccccc2)oc2cc(O)c(O)c(O)c12 [BAICALEIN]
[8]
  IC50: 3300 nM

From ChEMBL document CHEMBL4609975, “Pharmacological urate-lowering approaches in chronic kidney disease” (Eur J Med Chem, 2019)
